Patent US10030020B2, “Spirocycle compounds and methods of making and using same” (Abide Therapeutics, Inc., priority 2016, dated 2018)

Legend:
[1] = target: T1, ABHD6 (Mus musculus (Mouse), UniProt Q8R2Y0); test: Mouse brain proteomes from inhibitor treated mice (oral gavage, sacrificed 4 h after administration, ABPP analysis), ABHD6; type: in vivo, mouse (C57Bl/6J); settings: 5 mg/kg oral gavage
Outline: (§1)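 Compounds were given by oral gavage to wild-type C57Bl/6J mice in a vehicle such as PEG400/Ethanol/PBS (7/2/1). Animals were sacrificed 4 h after dosing, and brain proteomes were prepared and analyzed by established ABPP methods. Values are % inhibition at 5 mg/kg.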

[2] = target: T2, MAGL (Mus musculus (Mouse), UniProt O35678); test: In vitro competitive activity-based protein profiling (mouse brain membrane fraction or cell lysates), MAGL band; type: biochemical; settings: mouse proteome; for inhibition at 1 µM: read-out: MAGL % Inh 1 μM (mouse); for IC50: competitive ABPP
Description: In Vitro Competitive Activity-Based Protein Profiling.
Proteomes (mouse brain membrane fraction or cell lysates) (50 μL, 1.0 mg/mL total protein concentration) were preincubated with varying concentrations of inhibitors at 37° C. After 30 min, FP—Rh (1.0 μL, 50 μM in DMSO) was added and the mixture was incubated for another 30 min at 37° C. Reactions were quenched with SDS loading buffer (50 μL-4×) and run on SDS-PAGE.

[3] = target: T2, MAGL; test: Mouse brain proteomes from inhibitor treated mice (oral gavage, sacrificed 4 h after administration, ABPP analysis); type: in vivo, mouse (C57Bl/6J); settings: 5 mg/kg oral gavage
Outline: as §1

[4] = target: T1, ABHD6; test: In vitro competitive activity-based protein profiling (mouse brain membrane fraction or cell lysates), ABHD6 band; type: biochemical; settings: mouse proteome; for inhibition at 1 µM: read-out: ABHD6 % Inh 1 μM (mouse); for IC50: competitive ABPP
Outline: (§2)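 Mouse proteome samples (brain membrane fraction or cell lysate, 1.0 mg/mL protein) were pretreated with varying inhibitor concentrations and subsequently probed with fluorophosphonate-rhodamine, each step lasting 30 min at 37° C. Labelled proteins were separated by SDS-PAGE, and band fluorescence was imaged and quantified.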

[5] = target: T3, FAAH (Mus musculus (Mouse), UniProt O08914); test: Mouse brain proteomes from inhibitor treated mice (oral gavage, sacrificed 4 h after administration, ABPP analysis), FAAH; type: in vivo, mouse (C57Bl/6J); settings: 5 mg/kg oral gavage
Outline: as §1

[6] = target: T3, FAAH; test: In vitro competitive activity-based protein profiling (mouse brain membrane fraction or cell lysates), FAAH band; type: biochemical; settings: mouse proteome; for inhibition at 1 µM: read-out: FAAH % Inh 1 μM (mouse); for IC50: competitive ABPP
Outline: as §2

T3 sequence (O08914 whole entry): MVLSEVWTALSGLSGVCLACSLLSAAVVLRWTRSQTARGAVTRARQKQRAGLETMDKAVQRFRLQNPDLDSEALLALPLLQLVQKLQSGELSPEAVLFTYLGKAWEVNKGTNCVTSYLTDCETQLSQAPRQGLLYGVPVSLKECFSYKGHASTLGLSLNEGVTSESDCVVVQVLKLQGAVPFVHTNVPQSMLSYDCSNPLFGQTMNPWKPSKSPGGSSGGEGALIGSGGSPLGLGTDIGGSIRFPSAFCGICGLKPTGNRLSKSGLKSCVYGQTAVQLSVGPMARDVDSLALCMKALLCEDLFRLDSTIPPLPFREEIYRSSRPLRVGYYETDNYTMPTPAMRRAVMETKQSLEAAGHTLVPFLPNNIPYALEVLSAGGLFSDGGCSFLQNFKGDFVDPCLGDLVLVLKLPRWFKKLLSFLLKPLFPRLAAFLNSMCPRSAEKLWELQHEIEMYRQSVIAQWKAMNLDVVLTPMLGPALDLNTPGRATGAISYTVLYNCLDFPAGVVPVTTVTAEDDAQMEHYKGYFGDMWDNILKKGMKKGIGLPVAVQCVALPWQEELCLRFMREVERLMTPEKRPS
T2 sequence (O35678 whole entry): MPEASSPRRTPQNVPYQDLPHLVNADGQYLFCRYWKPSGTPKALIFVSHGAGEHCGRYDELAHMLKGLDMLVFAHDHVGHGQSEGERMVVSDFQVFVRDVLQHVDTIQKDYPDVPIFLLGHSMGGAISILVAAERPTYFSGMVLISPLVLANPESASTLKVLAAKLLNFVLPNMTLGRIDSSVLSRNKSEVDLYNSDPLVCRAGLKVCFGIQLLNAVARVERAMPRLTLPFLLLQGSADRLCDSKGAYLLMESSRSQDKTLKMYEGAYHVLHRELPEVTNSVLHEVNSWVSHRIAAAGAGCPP
T1 sequence (Q8R2Y0 whole entry): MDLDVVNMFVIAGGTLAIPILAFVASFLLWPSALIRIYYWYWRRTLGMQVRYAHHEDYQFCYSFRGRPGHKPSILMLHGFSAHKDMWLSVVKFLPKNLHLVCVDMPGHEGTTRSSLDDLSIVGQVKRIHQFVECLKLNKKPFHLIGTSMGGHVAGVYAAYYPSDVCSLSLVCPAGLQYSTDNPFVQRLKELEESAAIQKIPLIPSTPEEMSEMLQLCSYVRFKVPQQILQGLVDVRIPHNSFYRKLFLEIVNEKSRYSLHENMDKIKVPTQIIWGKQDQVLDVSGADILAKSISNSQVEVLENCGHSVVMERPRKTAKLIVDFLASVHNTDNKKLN

| SMILES | ABHD6 % Inh 5 mg/kg (mouse) [1] | inhibition at 1 µM [2] | IC50 [2] | MAGL % Inh 5 mg/kg (mouse) [3] | inhibition at 1 µM [4] | IC50 [4] | FAAH % Inh 5 mg/kg (mouse) [5] | inhibition at 1 µM [6] | IC50 [6] |
| --- | --- | --- | --- | --- | --- | --- | --- | --- | --- |
| CC(=O)N1CCN(c2cc(Cl)ccc2CN2CCCC23CCN(C(=O)OC(C(F)(F)F)C(F)(F)F)CC3)CC1 [Example 99, 1,1,1,3,3,3-Hexafluoropropan-2-yl 1-(2-(4-acetylpiperazin-1-yl)-4-chlorobenzyl)-1,8-diazaspiro[4.5]decane-8-carboxylate] | # (# is <25%) | > 75% | < 100 nM | ### (### is ≥75%) | < 25% | > 1000 nM | # (# is <25%) | < 25% | > 1000 nM |
| O=C(OC(C(F)(F)F)C(F)(F)F)N1CCC2(CCCN2Cc2ccc(C(F)(F)F)cc2N2CCCC2)CC1 [Example 66, 1,1,1,3,3,3-Hexafluoropropan-2-yl 1-(2-(pyrrolidin-1-yl)-4-(trifluoromethyl)benzyl)-1,8-diazaspiro[4.5]decane-8-carboxylate] | # (# is <25%) | > 75% | < 100 nM | ## (## is equal to or greater than 25% but less than 75%) | < 25% | > 1000 nM | # (# is <25%) | < 25% | > 1000 nM |
| O=C(OC(C(F)(F)F)C(F)(F)F)N1CCC2(CCCN2Cc2cc(N3CCCC3)cc(C(F)(F)F)c2)CC1 [Example 36, 1,1,1,3,3,3-Hexafluoropropan-2-yl 1-(3-(pyrrolidin-1-yl)-5-(trifluoromethyl)benzyl)-1,8-diazaspiro[4.5]decane-8-carboxylate] | # (# is <25%) | > 75% | < 100 nM | ### (### is ≥75%) | < 25% | > 1000 nM | # (# is <25%) | < 25% | > 1000 nM |
| O=C(OC(C(F)(F)F)C(F)(F)F)N1CCC2(CCCN2Cc2ccc(Cl)c(C(F)(F)F)c2)CC1 [Example 184, 1,1,1,3,3,3-Hexafluoropropan-2-yl 1-(4-chloro-3-(trifluoromethyl)benzyl)-1,8-diazaspiro[4.5]decane-8-carboxylate] | # (# is <25%) | > 75% | < 100 nM | ### (### is ≥75%) | < 25% | > 1000 nM | # (# is <25%) | < 25% | > 1000 nM |
| O=C(OC(C(F)(F)F)C(F)(F)F)N1CCC2(CCN(Cc3cccc(Cl)c3N3CCC(F)(F)CC3)C2)CC1 [Example 64, 1,1,1,3,3,3-Hexafluoropropan-2-yl 2-(3-chloro-2-(4,4-difluoropiperidin-1-yl)benzyl)-2,8-diazaspiro[4.5]decane-8-carboxylate] | # (# is <25%) | > 75% | < 100 nM | ## (## is equal to or greater than 25% but less than 75%) | < 25% | > 1000 nM | # (# is <25%) | < 25% | > 1000 nM |
| O=C(OC(C(F)(F)F)C(F)(F)F)N1CCC2(CCN(Cc3ccc(C(F)(F)F)cc3N3CCCC3)C2)CC1 [Example 72, 1,1,1,3,3,3-Hexafluoropropan-2-yl 2-(2-(pyrrolidin-1-yl)-4-(trifluoromethyl)benzyl)-2,8-diazaspiro[4.5]decane-8-carboxylate] | # (# is <25%) | > 75% | < 100 nM | ## (## is equal to or greater than 25% but less than 75%) | < 25% | > 1000 nM | # (# is <25%) | < 25% | > 1000 nM |
| O=C(OC(C(F)(F)F)C(F)(F)F)N1CCC2(CCCN2Cc2cc(OC3CCOCC3)cc(C(F)(F)F)c2)CC1 [Example 170, 1,1,1,3,3,3-Hexafluoropropan-2-yl 1-(3-(tetrahydro-2H-pyran-4-yloxy)-5-(trifluoromethyl)benzyl)-1,8-diazaspiro[4.5]decane-8-carboxylate] | # (# is <25%) | > 75% | < 100 nM | ## (## is equal to or greater than 25% but less than 75%) | < 25% | > 1000 nM | # (# is <25%) | < 25% | > 1000 nM |
| O=C(OC(C(F)(F)F)C(F)(F)F)N1CCC2(CCCN2Cc2ccc(Cl)cc2N2CCC2)CC1 [Example 107, 1,1,1,3,3,3-Hexafluoropropan-2-yl 1-(2-(azetidin-1-yl)-4-chlorobenzyl)-1,8-diazaspiro[4.5]decane-8-carboxylate] | # (# is <25%) | > 75% | < 100 nM | ### (### is ≥75%) | < 25% | > 1000 nM | ## (## is equal to or greater than 25% but less than 75%) | < 25% | > 1000 nM |
| O=C(OC(C(F)(F)F)C(F)(F)F)N1CCC2(CCCN2Cc2ccc(C(F)(F)F)cc2N2CCCCC2)CC1 [Example 78, 1,1,1,3,3,3-Hexafluoropropan-2-yl 1-(2-(piperidin-1-yl)-4-(trifluoromethyl)benzyl)-1,8-diazaspiro[4.5]decane-8-carboxylate] | # (# is <25%) | > 75% | < 100 nM | ## (## is equal to or greater than 25% but less than 75%) | < 25% | > 1000 nM | # (# is <25%) | < 25% | > 1000 nM |
| O=C(OC(C(F)(F)F)C(F)(F)F)N1CCC2(CCCN2Cc2ccc(N3CCCC3)c(C(F)(F)F)c2)CC1 [Example 130, 1,1,1,3,3,3-Hexafluoropropan-2-yl 1-(4-(pyrrolidin-1-yl)-3-(trifluoromethyl)benzyl)-1,8-diazaspiro[4.5]decane-8-carboxylate] | # (# is <25%) | > 75% | < 100 nM | ### (### is ≥75%) | 25 to 75% | > 1000 nM | # (# is <25%) | < 25% | > 1000 nM |
| CCOc1cc(CN2CCCC23CCN(C(=O)OC(C(F)(F)F)C(F)(F)F)CC3)ccc1Cl [Example 32, 1,1,1,3,3,3-Hexafluoropropan-2-yl 1-(4-chloro-3-ethoxybenzyl)-1,8-diazaspiro[4.5]decane-8-carboxylate] | # (# is <25%) | > 75% | < 100 nM | ### (### is ≥75%) | < 25% | > 1000 nM | # (# is <25%) | < 25% | > 1000 nM |
| O=C(OC(C(F)(F)F)C(F)(F)F)N1CCC2(CCCN2Cc2cccc(OCCF)c2)CC1 [Example 27, 1,1,1,3,3,3-Hexafluoropropan-2-yl 1-(3-(2-fluoroethoxy)benzyl)-1,8-diazaspiro[4.5]decane-8-carboxylate] | # (# is <25%) | – | 100 to 1000 nM | ### (### is ≥75%) | – | > 1000 nM | # (# is <25%) | – | > 1000 nM |
